In patent publication EP1192860B1, “UVA-tracer containing disinfectant and method of determining the degree of dilution of disinfectants using UVA-tracers” (Air Liquide Santé (International), priority 2000, dated 2002):
Entries after “also recorded” stand apart in the source; their conditions may differ.

Columns and labels:
Type in all cases: physicochemical
[1] = Solubility of selected UV-A-tracers in selected concentrates; conditions: for Solubilities of selected UV-A-tracers in concentrates and optically visible changes compared with the original concentrate: 0.2 g UV-A-tracer in 100 g concentrate, stirred 3 hours; for Solubility in the concentrates: all five concentrates (preparations 1 to 5)
Text: Solubilities of selected UV-A-tracers in concentrates containing various active ingredient combinations (preparations 1 to 5) and optically visible changes compared with the original concentrate, "+" UV-A-tracer soluble in 100 g of preparation to at least 0.2 g, "y" the originally colourless concentrate turns yellowish as a result of the incorporation of the UV-A-tracer.

[2] = Absorption spectrophotometric stability investigations of the incorporated UV-A-tracers
Description: The long-term stability of combinations of concentrate and UV-A-tracers in the dark and under the effect of light was investigated by reference to UV spectra. The combinations below were used (Table 7): Table 7
Following storage at room temperature for 4, 8 or 12 weeks in the dark or in daylight, 1% strength dilutions of each of the preparations in water were prepared.

[3] = Stability investigations of UV-A-tracer-containing concentrates (optically visible changes on storage); conditions: clear glass bottles, room temperature, window-sill vs dark, 3 months
Text: Since the UV-A-tracers are to be used for determining the active ingredient concentrations of disinfectant solutions, the UV-A-tracer-containing concentrates must be sufficiently stable throughout the entire storage life of the commercially available disinfectant concentrates (approximately 3 years). In order to investigate the stability of the UV-A-tracers, preparations 1 to 5 to which UV-A-tracers have been added were stored in clear glass bottles at room temperature firstly on a window-sill and secondly as a reference in the dark. Over a period of 3 months, the optically visible changes of the UV-A-tracer-containing preparations stored under varying conditions were observed and, at regular time intervals, 1% dilutions of these UV-A-tracer-containing preparations in water were investigated spectroscopically.

[4] = Prep.4 (Combinations of aldehydes)
[5] = Prep.5 (Quat + phenoxypropanols)
[6] = amine-containing preparations (1 and 2)

## COc1ccc(C(=O)c2ccccc2)c(O)c1 [Benzophenone-3, 2-Hydroxy-4-methoxybenzophenone]
[1]; Prep.1 (Quat + alkylamine)
  Solubilities of selected UV-A-tracers in concentrates and optically visible changes compared with the original concentrate: +y
[1]; Prep.2 (Quat + GuAc)
  Solubilities of selected UV-A-tracers in concentrates and optically visible changes compared with the original concentrate: +y
[1]; Prep.3 (Quat + org. acid)
  Solubilities of selected UV-A-tracers in concentrates and optically visible changes compared with the original concentrate: + (UV-A-tracer soluble in 100 g of preparation to at least 0.2 g)
[1]; [4]
  Solubilities of selected UV-A-tracers in concentrates and optically visible changes compared with the original concentrate: + (UV-A-tracer soluble in 100 g of preparation to at least 0.2 g)
[1]; [5]
  Solubilities of selected UV-A-tracers in concentrates and optically visible changes compared with the original concentrate: + (UV-A-tracer soluble in 100 g of preparation to at least 0.2 g)
[1]
  Solubility in the concentrates: dissolves without problems
[1]; [6]
  Colour change on incorporation of the UV-A-tracer: intensive yellow coloration
[2]; preparations 3, 4 and 5, storage in the dark and in daylight
  Decomposition of the UV-A-tracer: In none of the three disinfectants was decomposition of benzophenone-3 observed
[3]; in Preparation 3
  Changes within the observation period: does not display changes of any kind and none

## COc1cc(O)c(C(=O)c2ccccc2)cc1S(=O)(=O)O [Benzophenone-4, 2-Hydroxy-4-methoxybenzophenone-5-sulphonic acid]
[1]; Prep.1 (Quat + alkylamine)
  Solubilities of selected UV-A-tracers in concentrates and optically visible changes compared with the original concentrate: +y
[1]; Prep.2 (Quat + GuAc)
  Solubilities of selected UV-A-tracers in concentrates and optically visible changes compared with the original concentrate: +y
[1]; Prep.3 (Quat + org. acid)
  Solubilities of selected UV-A-tracers in concentrates and optically visible changes compared with the original concentrate: + (UV-A-tracer soluble in 100 g of preparation to at least 0.2 g)
[1]; [4]
  Solubilities of selected UV-A-tracers in concentrates and optically visible changes compared with the original concentrate: + (UV-A-tracer soluble in 100 g of preparation to at least 0.2 g)
[1]; [5]
  Solubilities of selected UV-A-tracers in concentrates and optically visible changes compared with the original concentrate: + (UV-A-tracer soluble in 100 g of preparation to at least 0.2 g)
[1]; [6]
  Colour change on incorporation of the UV-A-tracer: intensive yellow coloration

## COc1ccc(C(=O)c2ccc(OC)cc2O)c(O)c1 [Benzophenone-6, 2,2'-Dihydroxy-4,4'-dimethoxybenzophenone]
[1]; Prep.1 (Quat + alkylamine)
  Solubilities of selected UV-A-tracers in concentrates and optically visible changes compared with the original concentrate: +y
[1]; Prep.2 (Quat + GuAc)
  Solubilities of selected UV-A-tracers in concentrates and optically visible changes compared with the original concentrate: +y
[1]; Prep.3 (Quat + org. acid)
  Solubilities of selected UV-A-tracers in concentrates and optically visible changes compared with the original concentrate: +y
[1]; [4]
  Solubilities of selected UV-A-tracers in concentrates and optically visible changes compared with the original concentrate: + (UV-A-tracer soluble in 100 g of preparation to at least 0.2 g)
[1]; [5]
  Solubilities of selected UV-A-tracers in concentrates and optically visible changes compared with the original concentrate: + (UV-A-tracer soluble in 100 g of preparation to at least 0.2 g)
[1]; [6]
  Colour change on incorporation of the UV-A-tracer: intensive yellow coloration

## COc1cc(O)c(C(=O)c2cc(S(=O)(=O)[O-])c(OC)cc2O)cc1S(=O)(=O)[O-].[Na+].[Na+] [Benzophenone-9, 2,2'-dihydroxy-4,4'-dimethoxybenzophenone-5,5'-disodium sulphonate]
[1]; Prep.1 (Quat + alkylamine)
  Solubilities of selected UV-A-tracers in concentrates and optically visible changes compared with the original concentrate: +y
[1]; Prep.2 (Quat + GuAc)
  Solubilities of selected UV-A-tracers in concentrates and optically visible changes compared with the original concentrate: +y
[1]; Prep.3 (Quat + org. acid)
  Solubilities of selected UV-A-tracers in concentrates and optically visible changes compared with the original concentrate: +y
[1]; [4]
  Solubilities of selected UV-A-tracers in concentrates and optically visible changes compared with the original concentrate: + (UV-A-tracer soluble in 100 g of preparation to at least 0.2 g)
[1]; [5]
  Solubilities of selected UV-A-tracers in concentrates and optically visible changes compared with the original concentrate: + (UV-A-tracer soluble in 100 g of preparation to at least 0.2 g)
[1]; [6]
  Colour change on incorporation of the UV-A-tracer: intensive yellow coloration

## CC1CCC(C(C)C)C(OC(=O)c2ccccc2N)C1 (stereo not drawn) [Menthyl anthranilate, Menthyl o-aminobenzoate]
[1]; Prep.1 (Quat + alkylamine)
  Solubilities of selected UV-A-tracers in concentrates and optically visible changes compared with the original concentrate: + (UV-A-tracer soluble in 100 g of preparation to at least 0.2 g)
[1]; Prep.2 (Quat + GuAc)
  Solubilities of selected UV-A-tracers in concentrates and optically visible changes compared with the original concentrate: + (UV-A-tracer soluble in 100 g of preparation to at least 0.2 g)
[1]; Prep.3 (Quat + org. acid)
  Solubilities of selected UV-A-tracers in concentrates and optically visible changes compared with the original concentrate: + (UV-A-tracer soluble in 100 g of preparation to at least 0.2 g)
[1]; [4]
  Solubilities of selected UV-A-tracers in concentrates and optically visible changes compared with the original concentrate: + (UV-A-tracer soluble in 100 g of preparation to at least 0.2 g)
[1]; [5]
  Solubilities of selected UV-A-tracers in concentrates and optically visible changes compared with the original concentrate: + (UV-A-tracer soluble in 100 g of preparation to at least 0.2 g)
[1]
  Solubility in the concentrates: dissolves in all preparations
[1]; all preparations
  Colour change on incorporation of the UV-A-tracer: without visible colour changes
[2]; in preparation 5, after 12 weeks, 1% strength dilutions in water
  Divergence of the absorptions between sample stored in the dark and sample exposed to daylight: significant divergence
[2]; in preparation 5, exposed to daylight, after 12 weeks
  Odour of the sample: intensive unpleasant odour
[2]; in preparation 5, stored in the dark
  Changes of the sample: does not display any perceptible changes
[3]; in Preparation 1
  Changes within the observation period: slight yellowish tinge; also recorded: slight yellow coloration
[3]; in Preparation 2
  Changes within the observation period: slight yellowish tinge; also recorded: slight yellow coloration
[3]; in Preparation 3
  Changes within the observation period: intensive yellow coloration
[3]; in Preparation 4
  Changes within the observation period: pale yellow-green colour
[3]; in Preparation 5
  Changes within the observation period: from green to yellow
